The text below walks through data of ChEMBL document CHEMBL1201862, “PubChem BioAssay data set” (2004).

One test has as its target T1, Estrogen receptor (Homo sapiens, UniProt P03372).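 Also: potency for inhibiting coactivator peptide recruitment to the receptor.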
T1 sequence (P03372 whole entry): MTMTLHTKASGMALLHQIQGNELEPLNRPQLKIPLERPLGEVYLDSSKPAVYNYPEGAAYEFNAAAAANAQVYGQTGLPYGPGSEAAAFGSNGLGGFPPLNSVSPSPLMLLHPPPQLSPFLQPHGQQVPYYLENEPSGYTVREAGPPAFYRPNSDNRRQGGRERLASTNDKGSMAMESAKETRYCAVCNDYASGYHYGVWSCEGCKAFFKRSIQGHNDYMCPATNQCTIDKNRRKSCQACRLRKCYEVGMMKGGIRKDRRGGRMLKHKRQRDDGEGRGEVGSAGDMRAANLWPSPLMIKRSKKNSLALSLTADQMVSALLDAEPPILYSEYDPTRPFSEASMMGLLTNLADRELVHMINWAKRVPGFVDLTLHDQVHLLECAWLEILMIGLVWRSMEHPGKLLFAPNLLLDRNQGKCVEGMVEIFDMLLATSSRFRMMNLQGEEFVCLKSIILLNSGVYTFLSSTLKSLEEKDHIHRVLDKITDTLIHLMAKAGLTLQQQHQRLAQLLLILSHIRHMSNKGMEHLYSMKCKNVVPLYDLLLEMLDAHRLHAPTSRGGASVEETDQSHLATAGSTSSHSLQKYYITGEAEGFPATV

A further test deals with Beta-galactosidase (Escherichia coli, UniProt Q8VNN2). Nature of the test: beta-galactosidase enzyme inhibitors and activators, dose response, artefact control for CCR6 antagonist project, biochemical, E. coli enzyme, set 3 (AID 504712). The test is classed as functional.
Chain of Beta-galactosidase (Q8VNN2 whole entry): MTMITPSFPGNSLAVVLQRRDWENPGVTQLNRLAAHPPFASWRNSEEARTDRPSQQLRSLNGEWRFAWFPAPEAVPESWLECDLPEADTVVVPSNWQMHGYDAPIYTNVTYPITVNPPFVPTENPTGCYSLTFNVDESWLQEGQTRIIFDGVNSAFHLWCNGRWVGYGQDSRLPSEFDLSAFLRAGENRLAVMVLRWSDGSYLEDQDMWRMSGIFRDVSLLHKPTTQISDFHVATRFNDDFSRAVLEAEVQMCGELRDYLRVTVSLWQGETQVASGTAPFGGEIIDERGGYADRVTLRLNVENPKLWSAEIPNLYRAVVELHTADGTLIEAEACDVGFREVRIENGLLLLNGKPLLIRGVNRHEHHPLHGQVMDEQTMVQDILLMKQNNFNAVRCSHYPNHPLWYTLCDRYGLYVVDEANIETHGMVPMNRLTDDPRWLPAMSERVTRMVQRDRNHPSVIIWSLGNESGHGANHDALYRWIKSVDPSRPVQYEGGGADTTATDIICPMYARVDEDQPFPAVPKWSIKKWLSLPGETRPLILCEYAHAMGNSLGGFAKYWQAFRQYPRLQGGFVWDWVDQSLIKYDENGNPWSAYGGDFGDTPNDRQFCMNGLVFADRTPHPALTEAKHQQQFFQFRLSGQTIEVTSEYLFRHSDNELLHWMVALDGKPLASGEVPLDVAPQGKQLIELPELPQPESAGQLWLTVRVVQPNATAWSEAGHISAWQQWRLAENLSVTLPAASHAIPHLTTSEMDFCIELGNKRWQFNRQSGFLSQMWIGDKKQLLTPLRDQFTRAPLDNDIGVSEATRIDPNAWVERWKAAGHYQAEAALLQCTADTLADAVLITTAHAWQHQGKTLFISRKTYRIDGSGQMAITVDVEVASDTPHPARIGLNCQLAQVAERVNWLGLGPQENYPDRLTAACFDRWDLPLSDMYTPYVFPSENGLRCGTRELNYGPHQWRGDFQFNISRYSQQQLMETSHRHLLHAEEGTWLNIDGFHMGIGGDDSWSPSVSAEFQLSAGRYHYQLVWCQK
Test [1] has as its target T2, C-C chemokine receptor type 6 (Homo sapiens, UniProt P51684).
T2 sequence (P51684 whole entry): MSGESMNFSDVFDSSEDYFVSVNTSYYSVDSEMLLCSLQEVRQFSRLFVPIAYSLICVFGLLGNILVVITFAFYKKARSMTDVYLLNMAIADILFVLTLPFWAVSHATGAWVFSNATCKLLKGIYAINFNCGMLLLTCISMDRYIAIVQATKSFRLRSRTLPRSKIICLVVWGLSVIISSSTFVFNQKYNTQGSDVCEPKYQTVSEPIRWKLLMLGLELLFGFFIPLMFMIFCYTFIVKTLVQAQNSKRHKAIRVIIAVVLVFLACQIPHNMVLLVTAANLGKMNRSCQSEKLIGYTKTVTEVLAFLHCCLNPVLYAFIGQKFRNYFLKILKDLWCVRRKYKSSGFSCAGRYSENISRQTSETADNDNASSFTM
Nature of the test: CCR6 receptor antagonists, dose response, cell-based, luminescent beta-arrestin readout (AID 504728). The test is classed as functional.

A further test deals with Cytochrome P450 2D6 (Homo sapiens, UniProt P10635). Nature of the test: qHTS Assay for Inhibitors and Substrates of Cytochrome P450 2D6. [Related pubchem assays: 410 ]. As to conditions: read-out: Potency. The format is ADME.
Test [2] has as its target Luciferin 4-monooxygenase (Photinus pyralis, UniProt P08659). Nature of the test: Counter Screen for Luciferase-based Assay Positives. [Related pubchem assays: 620, 618, 411 ].
The subject of a further test is HT-1080. The test can be described thus: cytotoxicity in HT1080 fibrosarcoma cells, cell-based, fluorescence readout (AID 620). The test is classed as functional. As to conditions: Homo sapiens.
Test [3] deals with T3, Corticotropin-releasing factor receptor 2/Corticotropin-releasing factor-binding protein (Homo sapiens, UniProt P24387+Q13324).
T3 sequence (Q13324 whole entry): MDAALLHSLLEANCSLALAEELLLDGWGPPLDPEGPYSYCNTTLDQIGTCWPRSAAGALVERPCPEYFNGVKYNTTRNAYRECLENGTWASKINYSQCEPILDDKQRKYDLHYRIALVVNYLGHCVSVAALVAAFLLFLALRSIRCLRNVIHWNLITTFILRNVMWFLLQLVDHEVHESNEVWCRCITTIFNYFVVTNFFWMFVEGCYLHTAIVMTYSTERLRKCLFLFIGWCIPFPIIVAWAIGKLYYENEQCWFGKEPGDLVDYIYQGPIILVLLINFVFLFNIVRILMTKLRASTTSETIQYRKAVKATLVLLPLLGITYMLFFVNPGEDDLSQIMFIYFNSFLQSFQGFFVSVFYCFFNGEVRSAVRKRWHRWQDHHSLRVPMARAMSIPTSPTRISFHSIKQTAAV
T3 sequence (P24387 whole entry): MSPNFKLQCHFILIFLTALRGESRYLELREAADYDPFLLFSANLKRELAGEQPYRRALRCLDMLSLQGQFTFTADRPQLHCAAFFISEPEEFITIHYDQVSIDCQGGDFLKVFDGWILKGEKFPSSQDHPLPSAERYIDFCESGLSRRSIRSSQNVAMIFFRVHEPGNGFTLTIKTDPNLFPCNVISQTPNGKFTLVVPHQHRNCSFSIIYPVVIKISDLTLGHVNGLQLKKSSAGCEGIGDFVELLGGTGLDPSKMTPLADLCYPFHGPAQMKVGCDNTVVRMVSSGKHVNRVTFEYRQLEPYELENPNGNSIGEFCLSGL
Nature of the test: activators of CRF receptor 2 with binding protein – uHTS hits, confirmation (AID 602473). Particulars: read-out: EC50_Mean. The test is classed as functional.

Test [4] has as its target Glyceraldehyde-3-phosphate dehydrogenase (Homo sapiens, UniProt P04406).
A short description of test [5]: inhibitors of firefly luciferase expression or activity, dose response, H4 neuroglioma cells, luminescence (AID 1990). The test is classed as functional, cell-based.
The nature of test [6]: growth suppression of beta-catenin-knockout colon cells, dose response, cell-based, HCT116, human colon tumor (AID 1045).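 Also: HCT116 colon tumor cells with beta catenin knocked out; cells exposed to compound for 60 hours.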 The format is functional.
The nature of test [7]: Luminescence Cell-Based Dose Response HTS to Identify Inhibitors of 5'UTR Stem-Loop Driven Prion Protein mRNA Translation in H4 Neuroglioblastoma Cells. [Related pubchem assays: 1827 (Project Summary), 1813 (Primary HTS)]. The test is classed as functional.
The nature of test [8]: growth suppression of PTEN-null colon cells, dose response, cell-based, HCT116 PTEN knockout (AID 1047).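 Also: HCT116 colon tumor cells with PTEN knocked out; cells exposed to compound for 60 hours before readout; potency for loss of cell viability measured by luminescence.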 The format is functional.
The target in test [9] is T4, Ubiquitin-conjugating enzyme E2 N (Homo sapiens, UniProt P61088).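 Also: Dose-response confirmation in a TR-FRET assay detecting UBC13-driven polyubiquitin chain formation, inhibition measured.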
T4 sequence (P61088 whole entry): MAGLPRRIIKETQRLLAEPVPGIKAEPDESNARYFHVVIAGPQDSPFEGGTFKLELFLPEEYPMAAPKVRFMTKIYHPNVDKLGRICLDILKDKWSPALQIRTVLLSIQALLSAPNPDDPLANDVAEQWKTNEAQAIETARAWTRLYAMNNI
The format is functional.

Test [10] can be described thus: inhibitors of SNCA 5'UTR-driven reporter translation, confirmation, H4 neuroglioma cells, luminescence (AID 1988). The format is functional, cell-based.
Test [11] has as its target T5, Voltage-gated N-type calcium channel alpha-1B subunit/Amyloid beta A4 precursor protein-binding family A member 1 (Homo sapiens, UniProt Q00975+Q02410). The test is classed as protein assay.
The target of test [12] is T5, Voltage-gated N-type calcium channel alpha-1B subunit/Amyloid beta A4 precursor protein-binding family A member 1. The test is classed as protein assay. The source holds these as a separate data set.
In test [13] the target is Neurotensin receptor type 1 (Homo sapiens, UniProt P30989). The format is functional.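 Also: Image-based confirmatory dose-response assay measuring agonist activity at NTR1; NTR1-expressing U2OS osteosarcoma cells imaged for beta-arrestin GFP spot formation; agonist potency where compounds increase beta-arrestin recruitment.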
Test [14] concerns the target Glucose-6-phosphate 1-dehydrogenase (Homo sapiens, UniProt P11413). Nature of the test: human G6PD enzyme inhibitors, dose response, selectivity assay for P. falciparum G6PD inhibitor project, biochemical, fluorescence (AID 504792). The format is functional.
The target in test [15] is Heat shock protein HSP 90-alpha (Homo sapiens, UniProt P07900). The format is functional, organism-based.
Test [16] has as its target T6, Short transient receptor potential channel 4 (Mus musculus, UniProt Q9QUQ5).
T6 sequence (Q9QUQ5 whole entry): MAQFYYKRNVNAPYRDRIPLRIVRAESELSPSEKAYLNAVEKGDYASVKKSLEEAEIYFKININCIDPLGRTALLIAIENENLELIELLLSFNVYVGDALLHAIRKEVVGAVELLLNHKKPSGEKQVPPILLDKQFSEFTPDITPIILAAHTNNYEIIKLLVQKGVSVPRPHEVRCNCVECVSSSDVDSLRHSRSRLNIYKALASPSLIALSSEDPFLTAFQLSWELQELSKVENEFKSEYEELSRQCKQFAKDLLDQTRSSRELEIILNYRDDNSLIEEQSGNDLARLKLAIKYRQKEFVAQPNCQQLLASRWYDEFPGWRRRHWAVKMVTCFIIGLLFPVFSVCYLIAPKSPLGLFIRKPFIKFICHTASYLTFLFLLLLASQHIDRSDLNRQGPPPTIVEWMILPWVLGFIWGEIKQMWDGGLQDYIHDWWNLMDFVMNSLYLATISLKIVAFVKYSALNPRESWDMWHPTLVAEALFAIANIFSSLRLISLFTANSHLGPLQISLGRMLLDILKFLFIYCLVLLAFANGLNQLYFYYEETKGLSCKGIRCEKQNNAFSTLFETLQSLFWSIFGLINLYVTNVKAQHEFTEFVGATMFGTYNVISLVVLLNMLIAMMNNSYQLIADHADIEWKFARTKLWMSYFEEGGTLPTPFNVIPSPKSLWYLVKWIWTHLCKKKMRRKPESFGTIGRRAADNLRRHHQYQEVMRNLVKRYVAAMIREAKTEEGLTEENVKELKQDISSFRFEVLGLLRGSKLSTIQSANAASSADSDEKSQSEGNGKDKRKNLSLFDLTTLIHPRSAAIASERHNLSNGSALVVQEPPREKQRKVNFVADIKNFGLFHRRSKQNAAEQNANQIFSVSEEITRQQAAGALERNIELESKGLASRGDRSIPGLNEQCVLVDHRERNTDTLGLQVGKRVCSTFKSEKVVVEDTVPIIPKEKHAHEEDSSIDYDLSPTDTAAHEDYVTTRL
Nature of the test: mouse TRPC4 channel inhibitors, dose response, cell-based, HEK293 TRPC4/mu-opioid, Fluo-4 calcium (AID 434942).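 Also: potency of inhibitors blocking the TRPC4 calcium response.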 The test is classed as functional.

Test [17] concerns the target DNA dC->dU-editing enzyme APOBEC-3A (Homo sapiens, UniProt P31941). Nature of the test: Dose Response confirmation of small molecule APOBEC3A DNA Deaminase Inhibitors via a fluorescence-based single-stranded DNA deaminase assay. [Related pubchem assays (depositor defined):AID493011, AID493024]. The format is functional.
For test [18], the target named is T7, DNA dC->dU-editing enzyme APOBEC-3G (Homo sapiens, UniProt Q9HC16). The test is classed as functional.
The target in test [19] is T7, DNA dC->dU-editing enzyme APOBEC-3G. The test can be described thus: Dose Response confirmation of small molecule APOBEC3G DNA Deaminase Inhibitors via a fluorescence-based single-stranded DNA deaminase assay. [Related pubchem assays (depositor defined):AID493012, AID493028]. The test is classed as functional.

The structures appear in SMILES notation. Active and inactive are the calls of the source. A value given as a limit tells only on which side of the number the result lay.

T5 sequence (Q00975 whole entry): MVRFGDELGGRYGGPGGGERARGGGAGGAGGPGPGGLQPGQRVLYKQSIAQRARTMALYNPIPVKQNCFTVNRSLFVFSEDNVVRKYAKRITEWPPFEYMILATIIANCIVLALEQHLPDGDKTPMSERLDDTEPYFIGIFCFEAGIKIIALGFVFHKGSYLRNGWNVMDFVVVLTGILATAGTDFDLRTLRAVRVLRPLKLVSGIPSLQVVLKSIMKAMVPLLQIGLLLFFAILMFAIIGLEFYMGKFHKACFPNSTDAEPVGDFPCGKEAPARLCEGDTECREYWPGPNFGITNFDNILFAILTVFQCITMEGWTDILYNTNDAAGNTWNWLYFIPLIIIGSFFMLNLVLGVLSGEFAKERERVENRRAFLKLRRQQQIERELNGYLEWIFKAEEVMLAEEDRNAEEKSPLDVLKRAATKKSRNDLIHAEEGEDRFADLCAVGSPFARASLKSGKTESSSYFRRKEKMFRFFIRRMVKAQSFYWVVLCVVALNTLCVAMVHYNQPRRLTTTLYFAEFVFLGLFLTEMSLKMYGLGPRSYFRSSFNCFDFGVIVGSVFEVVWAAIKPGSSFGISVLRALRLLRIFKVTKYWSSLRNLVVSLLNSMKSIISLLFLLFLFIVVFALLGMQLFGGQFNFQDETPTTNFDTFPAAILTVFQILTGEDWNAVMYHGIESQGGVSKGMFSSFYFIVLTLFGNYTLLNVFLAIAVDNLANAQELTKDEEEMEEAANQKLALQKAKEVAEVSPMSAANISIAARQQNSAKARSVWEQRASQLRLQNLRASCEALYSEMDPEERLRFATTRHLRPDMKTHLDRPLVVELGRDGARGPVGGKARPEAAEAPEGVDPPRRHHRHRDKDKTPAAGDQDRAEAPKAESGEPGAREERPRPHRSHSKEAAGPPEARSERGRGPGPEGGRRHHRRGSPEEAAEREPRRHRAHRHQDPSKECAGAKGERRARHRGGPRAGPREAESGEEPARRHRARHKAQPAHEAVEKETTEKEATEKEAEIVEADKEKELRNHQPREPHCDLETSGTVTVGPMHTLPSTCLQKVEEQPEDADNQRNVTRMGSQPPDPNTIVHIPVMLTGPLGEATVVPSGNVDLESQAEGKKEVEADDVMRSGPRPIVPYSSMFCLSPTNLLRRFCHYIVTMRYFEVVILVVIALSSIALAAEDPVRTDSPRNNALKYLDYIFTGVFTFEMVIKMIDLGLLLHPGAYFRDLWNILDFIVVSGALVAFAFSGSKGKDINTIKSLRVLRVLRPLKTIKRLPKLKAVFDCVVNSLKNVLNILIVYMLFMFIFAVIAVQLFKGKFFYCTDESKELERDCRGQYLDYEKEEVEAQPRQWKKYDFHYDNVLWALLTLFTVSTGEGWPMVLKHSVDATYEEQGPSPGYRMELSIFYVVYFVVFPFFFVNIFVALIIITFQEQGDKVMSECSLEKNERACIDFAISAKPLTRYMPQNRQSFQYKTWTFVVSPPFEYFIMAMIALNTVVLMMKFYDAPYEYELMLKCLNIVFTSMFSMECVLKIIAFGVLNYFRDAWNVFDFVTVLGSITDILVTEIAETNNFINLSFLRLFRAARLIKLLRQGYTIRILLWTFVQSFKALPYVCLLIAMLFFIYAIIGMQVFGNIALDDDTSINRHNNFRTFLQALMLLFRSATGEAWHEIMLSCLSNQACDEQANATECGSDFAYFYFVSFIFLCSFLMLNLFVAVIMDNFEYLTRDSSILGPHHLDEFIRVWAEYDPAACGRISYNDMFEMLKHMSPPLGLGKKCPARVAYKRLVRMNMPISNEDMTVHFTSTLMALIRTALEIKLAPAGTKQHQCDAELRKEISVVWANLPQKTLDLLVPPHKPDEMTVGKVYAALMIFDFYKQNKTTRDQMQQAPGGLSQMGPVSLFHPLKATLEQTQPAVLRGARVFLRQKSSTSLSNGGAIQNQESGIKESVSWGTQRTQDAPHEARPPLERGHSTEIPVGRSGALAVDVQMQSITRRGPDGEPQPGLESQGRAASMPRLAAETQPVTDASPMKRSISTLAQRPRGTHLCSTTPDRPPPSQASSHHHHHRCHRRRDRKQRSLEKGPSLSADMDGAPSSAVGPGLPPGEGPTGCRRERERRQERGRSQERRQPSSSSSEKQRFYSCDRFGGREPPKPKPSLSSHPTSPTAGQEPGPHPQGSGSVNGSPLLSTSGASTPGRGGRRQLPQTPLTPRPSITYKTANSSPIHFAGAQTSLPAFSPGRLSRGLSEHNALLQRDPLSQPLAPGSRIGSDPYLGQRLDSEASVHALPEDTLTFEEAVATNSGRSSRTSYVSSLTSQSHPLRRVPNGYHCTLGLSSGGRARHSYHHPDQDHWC
T5 sequence (Q02410 whole entry): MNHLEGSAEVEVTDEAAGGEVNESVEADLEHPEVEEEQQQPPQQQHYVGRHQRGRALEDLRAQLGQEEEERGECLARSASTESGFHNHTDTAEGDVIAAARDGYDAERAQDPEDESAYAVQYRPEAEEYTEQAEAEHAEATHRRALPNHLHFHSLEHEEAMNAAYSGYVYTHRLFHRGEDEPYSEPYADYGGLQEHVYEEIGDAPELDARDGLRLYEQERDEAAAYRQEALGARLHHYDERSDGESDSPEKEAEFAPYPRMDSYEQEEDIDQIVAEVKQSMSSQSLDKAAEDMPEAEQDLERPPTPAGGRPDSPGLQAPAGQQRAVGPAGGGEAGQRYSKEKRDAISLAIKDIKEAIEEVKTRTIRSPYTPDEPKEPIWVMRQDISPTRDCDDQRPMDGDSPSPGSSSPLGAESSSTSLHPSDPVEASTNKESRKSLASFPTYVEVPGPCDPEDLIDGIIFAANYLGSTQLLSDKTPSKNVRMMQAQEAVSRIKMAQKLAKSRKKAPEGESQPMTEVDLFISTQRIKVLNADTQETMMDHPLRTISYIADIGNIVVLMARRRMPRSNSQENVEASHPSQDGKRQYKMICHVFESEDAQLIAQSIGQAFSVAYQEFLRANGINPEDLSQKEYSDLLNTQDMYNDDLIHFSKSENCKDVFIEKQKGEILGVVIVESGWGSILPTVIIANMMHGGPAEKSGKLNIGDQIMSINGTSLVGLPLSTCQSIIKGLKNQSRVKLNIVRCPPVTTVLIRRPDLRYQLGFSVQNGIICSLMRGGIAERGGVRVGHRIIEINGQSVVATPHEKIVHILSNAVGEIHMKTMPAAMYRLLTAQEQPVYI
Chain of Luciferin 4-monooxygenase (P08659 whole entry): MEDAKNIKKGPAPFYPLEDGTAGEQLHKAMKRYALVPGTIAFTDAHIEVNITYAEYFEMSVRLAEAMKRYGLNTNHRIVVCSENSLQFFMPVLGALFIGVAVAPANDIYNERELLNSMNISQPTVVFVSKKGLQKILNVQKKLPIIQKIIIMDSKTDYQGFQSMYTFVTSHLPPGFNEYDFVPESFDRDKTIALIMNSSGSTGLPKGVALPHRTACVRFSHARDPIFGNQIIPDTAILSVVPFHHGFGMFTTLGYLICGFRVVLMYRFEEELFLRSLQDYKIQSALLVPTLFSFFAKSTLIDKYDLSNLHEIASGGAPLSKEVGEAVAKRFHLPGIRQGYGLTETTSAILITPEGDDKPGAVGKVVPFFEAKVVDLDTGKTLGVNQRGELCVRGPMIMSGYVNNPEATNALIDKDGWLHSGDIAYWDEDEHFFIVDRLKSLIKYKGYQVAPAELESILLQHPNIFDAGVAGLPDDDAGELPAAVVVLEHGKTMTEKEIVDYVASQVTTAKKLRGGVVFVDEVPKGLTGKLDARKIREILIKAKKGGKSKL
Chain of Glyceraldehyde-3-phosphate dehydrogenase (P04406 whole entry): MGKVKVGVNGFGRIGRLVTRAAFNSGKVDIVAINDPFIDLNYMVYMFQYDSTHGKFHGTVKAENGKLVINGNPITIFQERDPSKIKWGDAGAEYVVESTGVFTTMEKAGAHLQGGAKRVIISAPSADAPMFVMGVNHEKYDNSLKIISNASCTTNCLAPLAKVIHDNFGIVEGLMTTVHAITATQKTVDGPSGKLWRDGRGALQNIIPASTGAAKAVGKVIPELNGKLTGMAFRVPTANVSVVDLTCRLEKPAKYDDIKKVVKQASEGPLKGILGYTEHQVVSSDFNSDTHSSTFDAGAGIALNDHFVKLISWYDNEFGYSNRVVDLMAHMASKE

On to `COc1ccc2cc3c(N)nn(C(=O)Cc4ccc(Cl)cc4)c3nc2c1`, for which, at Estrogen receptor, the IC50 was 24.8 µM (active).
As to `N#C/C(=C\c1ccc(-c2cccc([N+](=O)[O-])c2)o1)C(=O)Nc1nc(-c2cccs2)cs1`, the IC50 (on Beta-galactosidase; in test [1]) was > 66.6 µM (inactive) throughout.
Take `Cc1ccc(C(=O)[C@@H]2[C@@H]3[C@@H](C(=O)[C@@H]4OC[C@H]3O4)[C@@H]3C=Cc4ccccc4N23)cc1`: at Cytochrome P450 2D6, the AC50 was 20 µM (inconclusive).
Consider `O=S(=O)(NCc1csc(-c2cccnc2)n1)c1cccs1`, for which, on Estrogen receptor, the IC50 was 18 µM (active).
For the molecule `COCCn1c(C)cc(C(=O)CSc2ccc(NC(C)=O)cc2)c1C`, the EC50 was 3.66 µM (active) in test [2], > 50 µM (not active) with HT-1080 and > 53 µM (inactive) in test [3]. Besides, the half-maximal inhibitory concentration (IC50) in [4] is given as > 100 µM (not active).
For the molecule `c1cc2c(cc1C1CCCCC1)c1c3n2CCCNC3CCC1` (stereo not drawn), the EC50 in [5] was > 120 µM (not active); in test [6], 4.46 µM (active); in test [7], 71.1 µM (active); in [8] it was 5.92 µM (active); in test [10], 18 µM (active). In addition, the IC50 was > 66.6 µM (inactive) on Beta-galactosidase, > 20 µM (inactive) in [9] and 19.8 µM (active) in test [1].
`CC(=O)Nc1ccc(NC(=O)c2ccc(NC(=O)c3ccccc3)cc2)cc1`: the IC50 in test [11] is 6.5 µM (active); in test [12], > 50 µM (inactive).
The matching figures for `Cn1cc(Cl)c(C(=O)Nc2nc3ccc([N+](=O)[O-])cc3s2)n1`: 5.21 µM (active) and > 50 µM (inactive).
Regarding `CCCCN(C)C(=O)c1cc2cc3ccc(OC)cc3nc2s1`, the EC50 in [2] is 0.22 µM (active); with HT-1080, > 50 µM (not active).
In the case of `COC(=O)c1ccc(/C=C/C(=O)OCC(=O)Nc2sccc2C(N)=O)cc1`, in test [13], the EC50 is 18.9 µM (active).
Regarding `CCC(=O)OCOc1ccc(/C=C2/CCC(CN(C)C)C2=O)cc1` (stereo not drawn), the IC50 in [14] is > 80 µM (inactive); on Beta-galactosidase it was > 66.6 µM (inactive); in [1] it was 15.5 µM (active). Besides, in test [15], the AC50 was 2.85 µM (active).
In the case of `COc1cccc(CNC(=O)CCC2CCCN(Cc3cc(Cl)ccc3O)C2)c1` (stereo not drawn), in [16], the EC50 is 2.11 µM (active).
The same measure, in the same setting: the result for `CC12CCC(C/C1=N/OC(=O)c1cccc([N+](=O)[O-])c1)C2(C)C` (stereo not drawn) reads 0.531 µM (active).
For the molecule `O=[N+]([O-])c1cc2c(cc1/C=N/Nc1nc(O)c3ccccc3n1)OCO2`, the IC50 is 3.63 µM (active) in test [17] and 4.7 µM (active) in test [18].
As for `CCOC(=O)c1c(N)sn(-c2ccccc2C)c1=S`, the IC50 in test [19] was 45.6 µM (active).
